From PMC11519908, “Luminescent Ln(III)-Metallopeptide Sensors for Monitoring Pseudomonas aeruginosa Elastase B Activity in Complex Biological Media” (ACS Sensors, 2024)

What was measured:
[1] = Luminescence of probe in the presence of glutathione; assay type: physicochemical; details: 5 µM probe, 100 µM GSH, HEPES buffer pH 8, 37 °C, time-gated emission
[2] = system: supernatant from the P. aeruginosa strain producing LasB; test: Luminescence of probe with LasB-secreting P. aeruginosa supernatant with and without EDTA; assay type: biochemical, Pseudomonas aeruginosa
LasB = LasB (Pseudomonas aeruginosa, UniProt P14756); details: 1, 5, 7.5, 10 µM probe, 1 mM CaCl2, 60.6 nM (2 µg/mL) LasB, 10 mM HEPES pH 8.0, 37 °C, time-gated emission every 15 min for 10 h, fit to hit-and-run model (Dynafit)
LasB, sequence (P14756 198-498): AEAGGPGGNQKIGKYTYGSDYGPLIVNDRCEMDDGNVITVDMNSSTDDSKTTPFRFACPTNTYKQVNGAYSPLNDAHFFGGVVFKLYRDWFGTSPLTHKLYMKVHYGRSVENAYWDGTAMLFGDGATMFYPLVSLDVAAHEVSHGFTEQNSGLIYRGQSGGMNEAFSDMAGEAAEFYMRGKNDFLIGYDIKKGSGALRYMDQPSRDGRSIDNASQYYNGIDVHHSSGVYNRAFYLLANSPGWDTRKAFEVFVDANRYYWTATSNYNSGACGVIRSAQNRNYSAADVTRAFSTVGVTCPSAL

[3] = Luminescence of probe in the presence of H2O2; assay type: physicochemical; details: 5 µM probe, 0.5 mM H2O2, HEPES buffer pH 8, 37 °C, time-gated emission
[4] = Luminescence of probe in the presence of pyocyanin and P. aeruginosa supernatant; assay type: physicochemical
E. coli supernatant = details: 10 µM probe, 1 mM CaCl2, HEPES buffer, 10 µL E. coli supernatant, 20 h at 37 °C, time-gated emission
[5] = system: supernatant from P. aeruginosa strain producing LasB; assay type: biochemical, Pseudomonas aeruginosa; details: P1[Tb]: 0.5 mM probe, 50 mM CaCl2, HEPES buffer, 9 µL supernatant, RT, 1 h before injection

In the case of “EGLAEW [P1[Tb], green-emitting metallopeptide: DO3A-Tb(III) complex at N-terminus of EGLAEW, Trp as sensitizing unit]”, the “change of luminescence 20 h after addition of glutathione” value [1] is reported as “remained constant”, the “reduction of luminescence 3 h after supernatant addition, in the absence of EDTA” value [2] is reported as “approximately 90%” and the “reduction of luminescence 3 h after supernatant addition, with EDTA” value [2] is reported as “approximately 30%”. For the same substance, the “apparent rate constant ksub (equivalent to specificity constant kcat/Km)” value (LasB) was 0.438 ± 0.007 μM^–1min^–1, the “luminescence response to P. aeruginosa supernatant added after incubation in 1.2% FBS” value was “gradual reduction in the luminescence emission” and the “time of stable luminescence in 1.2% FBS” value (10 µM probe, 1.2% v/v fetal bovine serum in HEPES buffer, 37 °C, time-gated emission every hour for 12 h) was “at least 12 h”. For the same substance, the “change of luminescence 20 h after addition of H2O2” value [3] was “remained constant”, the “probe activity toward P. aeruginosa supernatant in the presence of pyocyanin” value [4] was “remained active” and the “reduction of emission band intensity on incubation with pyocyanin” value ([4]; 5 µM probe, 1 µM pyocyanin, HEPES buffer, 37 °C, time-gated emission) was “approximately 20%”. For the same substance, the “change of luminescence with E. coli supernatant” value (E. coli supernatant) was “no changes in the luminescence” and the “cleavage of probe by wild-type P. aeruginosa supernatant (HPLC-MS)” value [5] was “cleaved at the G-L bond”.
